# Measured values taken from patent US20220073536A1 (Rigel Pharmaceuticals, Inc., priority 2003, published 2022).
# Legend:
# [1] = test system: cultured human mast cells (CHMC); assay: CHMC low cell density IgE activation: tryptase assay; assay type: cell-based; conditions: IgE activation
# Method in brief: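 Anti-IgE-driven degranulation of cultured human mast cells at low density, 1000–1500 cells/well, was induced over 30 min at 37 °C. It was scored by supernatant tryptase activity on a fluorogenic substrate.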
# [2] = test system: cultured human mast cells (CHMC); assay: CHMC low cell density ionomycin activation: tryptase assay; assay type: cell-based; conditions: read-out: LD Tryptase, CHMC, Iono, 3 pt
# [3] = Homo sapiens, Mast cell, low cell density, 3 pt, read-out: LD Tryptase, CHMC, IgE, 3 pt
# [4] = Homo sapiens, Mast cell, low cell density, 3 pt
# [5] = Homo sapiens, Mast cell, low cell density, 8 pt, read-out: LD Tryptase, CHMC, IgE, 8 pt
# [6] = Homo sapiens, Mast cell, low cell density CHMC, tryptase release, 3 point, read-out: LD Tryptase, CHMC, IgE, 3 pt
# [7] = Homo sapiens, Mast cell, low cell density CHMC, tryptase release, 3 point
# [8] = low cell density CHMC, tryptase release, 3 point, read-out: LD Tryptase, CHMC, IgE, 3 pt
# [9] = low cell density CHMC, tryptase release, 3 point
Structure (SMILES),"IC50 [1, 3]","IC50 [2, 4]",also measured
"COc1ccc(Nc2ncc(F)c(Nc3ccc(OCCO)nc3)n2)cc1Cl [Compound 505, N2-(3-Chloro-4-methoxyphenyl)-5-fluoro-N4-[2-(2-hydroxyethyleneoxy)pyrid-5-yl]-2,4-pyrimidinediamine]",–,–,"IC50 ([1]; low cell density, 3 pt, read-out: LD Tryptase, CHMC, IgE, 3 pt): < 10 µM; IC50 ([1]; low cell density, 8 pt, read-out: LD Tryptase, CHMC, IgE, 8 pt): < 10 µM; IC50 ([2]; low cell density, 3 pt): > 10 µM"
"C=CCNc1ncc(F)c(N(C)c2ccc3c(c2)OCCO3)n1 [Compound 506, N2-Allyl-N4-(3,4-ethylenedioxyphenyl)-5-fluoro-N4-methyl-2,4-pyrimidinediamine]",> 10 µM,> 10 µM,–
CNS(=O)(=O)c1ccc(Nc2nc(Nc3cc(OC)cc(OC)c3)ncc2F)cc1OC [Compound 507],< 10 µM,> 10 µM,"IC50 [1, 5]: < 10 µM"
"COc1cc(Nc2ncc(F)c(Nc3ccc(C)cn3)n2)cc(OC)c1 [Compound 508, N2-(3,5-Dimethoxyphenyl)-5-fluoro-N4-(3-methylpyrid-6-yl)-2,4-pyrimidinediamine]",< 10 µM,> 10 µM,"IC50 [1, 5]: < 10 µM"
Cc1ccc(Nc2nc(Nc3cc(C)cc(C)c3)ncc2F)nc1 [Compound 509],< 10 µM,> 10 µM,"IC50 [1, 5]: < 10 µM"
COc1cc(Nc2ncc(F)c(Nc3ccc(Cl)cn3)n2)cc(OC)c1 [Compound 510],< 10 µM,> 10 µM,"IC50 [1, 5]: < 10 µM"
Fc1cnc(Nc2cccc(-c3ncon3)c2)nc1Nc1ccc2c(c1)OCCO2 [Compound 512],< 10 µM,> 10 µM,–
COc1ccc(Nc2nc(Nc3cccc(-c4ncon4)c3)ncc2F)cc1OC [Compound 513],< 10 µM,> 10 µM,–
"CC1(C)Oc2ccc(Nc3nc(Nc4cccc(-c5ncon5)c4)ncc3F)cc2NC1=O [Compound 514, N4-(2,2-Dimethyl-3-oxo-4H-benz[1,4]oxazin-6-yl)-5-fluoro-N2-[3-(1,2,4-oxadiazol-3-yl)phenyl]-2,4-pyrimidinediamine]",< 10 µM,> 10 µM,–
"COC(=O)c1cc(Nc2ncc(F)c(Nc3ccc(OC)c(OC)c3)n2)cc(-c2ncco2)c1 [Compound 515, N4-(3,4-Dimethoxyphenyl)-5-fluoro-N2-[5-methoxycarbonyl-3-(oxazol-2-yl)phenyl]-2,4-pyrimidinediamine]",< 10 µM,> 10 µM,–
"COC(=O)c1cc(Nc2ncc(F)c(Nc3ccc4c(c3)OCCO4)n2)cc(-c2ncco2)c1 [Compound 516, N4-(3,4-Ethylenedioxyphenyl)-5-fluoro-N2-[5-methoxycarbonyl-3-(oxazol-2-yl)phenyl]-2,4-pyrimidinediamine]",> 10 µM,> 10 µM,–
"COC(=O)c1cc(Nc2ncc(F)c(Nc3ccc4c(c3)NC(=O)C(C)(C)O4)n2)cc(-c2ncco2)c1 [Compound 517, N4-(2,2-Dimethyl-3-oxo-4H-benz[1,4]oxazin-6-yl)-5-fluoro-N2-[5-methoxycarbonyl-3-(oxazol-2-yl)phenyl]-2,4-pyrimidinediamine]",> 10 µM,> 10 µM,–
"COC(=O)c1cc(Nc2ncc(F)c(Nc3cccc(O)c3)n2)cc(-c2ncco2)c1 [Compound 518, 5-Fluoro-N4-(3-hydroxyphenyl)-N2-[5-methoxycarbonyl-3-(oxazol-2-yl)phenyl]-2,4-pyrimidinediamine]",< 10 µM,> 10 µM,–
"Fc1cnc(Nc2cc(-c3ncco3)cc(C(F)(F)F)c2)nc1Nc1ccc2c(c1)OCCO2 [Compound 519, N4-(3,4-Ethylenedioxyphenyl)-5-fluoro-N2-[3-(oxazol-2-yl)-5-trifluoromethylphenyl]-2,4-pyrimidinediamine]",< 10 µM,> 10 µM,–
"COc1ccc(Nc2nc(Nc3cc(-c4ncco4)cc(C(F)(F)F)c3)ncc2F)cc1OC [Compound 520, N4-(3,4-Dimethoxyphenyl)-5-fluoro-N2-[3-(oxazol-2-yl)-5-trifluoromethylphenyl]-2,4-pyrimidinediamine]",< 10 µM,> 10 µM,–
"CC1(C)Oc2ccc(Nc3nc(Nc4cc(-c5ncco5)cc(C(F)(F)F)c4)ncc3F)cc2NC1=O [Compound 521, N4-(2,2-Dimethyl-3-oxo-4H-benz[1,4]oxazin-6-yl)-5-fluoro-N2-[3-(oxazol-2-yl)-5-trifluoromethylphenyl]-2,4-pyrimidinediamine]",< 10 µM,> 10 µM,–
CC(C)Oc1ccc(N(C)c2nc(Cl)ncc2F)cn1 [Compound 576],–,–,"IC50 [1, 6]: > 10 µM; IC50 [2, 7]: > 10 µM"
COc1cc(Nc2ncc(F)c(N(C)c3ccc(OC)c(Cl)c3)n2)cc(OC)c1 [Compound 577],–,–,"IC50 [1, 6]: < 10 µM; IC50 [2, 7]: > 10 µM"
"COc1ccc(N(C)c2nc(Nc3cc(C)c(OC)c(Cl)c3)ncc2F)cc1Cl [Compound 578, N2-(3-Chloro-4-methoxy-5-methylphenyl)-N4-(3-chloro-4-methoxyphenyl)-5-fluoro-N4-methyl-2,4-pyrimidinediamine]",–,–,"IC50 [1, 6]: < 10 µM; IC50 [2, 7]: > 10 µM"
"CNC(=O)COc1c(C)cc(Nc2ncc(F)c(N(C)c3ccc(OC)c(Cl)c3)n2)cc1C [Compound 579, N4-(3-Chloro-4-methoxyphenyl)-N2-[3,5-dimethyl-4-(N-methylamino)carbonylmethyleneoxyphenyl]-5-fluoro-N4-methyl-2,4-pyrimidinediamine]",–,–,"IC50 [1, 8]: < 10 µM; IC50 [2, 9]: > 10 µM"
"CNC(=O)COc1cccc(Nc2ncc(F)c(N(C)c3ccc(OC)c(Cl)c3)n2)c1 [Compound 580, N4-(3-Chloro-4-methoxyphenyl)-N2-[3-(N-methylamino)carbonylmethyleneoxyphenyl]-5-fluoro-N4-methyl-2,4-pyrimidinediamine]",–,–,"IC50 [1, 8]: < 10 µM; IC50 [2, 9]: > 10 µM"
"COc1cc(Nc2ncc(F)c(N(C)c3ccc(OC(C)C)nc3)n2)cc(OC)c1 [Compound 581, N2-(3,5-Dimethoxyphenyl)-5-fluoro-N4-(2-isopropoxypyrid-5-yl)-N4-methyl-2,4-pyrimidinediamine]",–,–,"IC50 [1, 6]: < 10 µM; IC50 [2, 7]: > 10 µM"
"CNC(=O)COc1cccc(Nc2ncc(F)c(N(C)c3ccc(OC(C)C)nc3)n2)c1 [Compound 582, 5-Fluoro-N4-(2-isopropoxypyrid-5-yl)-N4-methyl-N2-[3-(N-methylamino)carbonylmethyleneoxyphenyl]-2,4-pyrimidinediamine]",–,–,"IC50 [1, 8]: < 10 µM; IC50 [2, 9]: > 10 µM"
"Cc1cc(C)cc(Nc2ncc(F)c(N(C)c3ccc(OC(C)C)nc3)n2)c1 [Compound 583, N2-(3,5-Dimethylphenyl)-5-fluoro-N4-(2-isopropoxypyrid-5-yl)-N4-methyl-2,4-pyrimidinediamine]",–,–,"IC50 [1, 6]: < 10 µM; IC50 [2, 7]: > 10 µM"
COc1ccc(N(C)c2nc(Nc3cc(C)cc(C)c3)ncc2F)cc1Cl [Compound 584],–,–,"IC50 [1, 6]: < 10 µM; IC50 [2, 7]: > 10 µM"
"COC(=O)c1cc2cc(Nc3ncc(F)c(N(C)c4ccc(OC)c(Cl)c4)n3)ccc2o1 [Compound 585, N4-(3-Chloro-4-methoxyphenyl)-5-fluoro-N2-(2-methoxycarbonylbenzofuran-5-yl)-N4-methyl-2,4-pyrimidinediamine]",–,–,"IC50 [1, 6]: > 10 µM; IC50 [2, 7]: > 10 µM"
"COC(=O)c1cc2cc(Nc3ncc(F)c(N(C)c4ccc(OC(C)C)nc4)n3)ccc2o1 [Compound 586, 5-Fluoro-N4-(2-isopropoxypyrid-5-yl)-N2-(2-methoxycarbonylbenzofuran-5-yl)-N4-methyl-2,4-pyrimidinediamine]",–,–,"IC50 [1, 6]: < 10 µM; IC50 [2, 7]: < 10 µM"
